What was measured:
Shewanella LPAAT = assay: Functional expression of Shewanella LPAAT in E. coli, enzyme assays; format: biochemical, Shewanella hanedai; conditions: expressed at 10° C. in E. coli BL21, with or without His-tag; 30 μM thioester
Excerpt: To clone an LPAAT gene from the prokaryotic organism Shewanella, the genomic DNA from Shewanella hanedai was isolated, partially digested with Sau3a and ligated into the vector pUC18. This genomic library was screened for LPAAT genes by a PCR using different primer combinations. This method has made it possible to identify a 1486 by clone whose open reading frame codes for a 25.2 kDa LPAAT protein. The ShLPAAT sequence was introduced into the vector pQE70 (Qiagen) in accordance with the manufacturer's instructions. The resulting plasmids pQE70-Sh and pQE70-ShHis and the blank vector pQE70 were transformed into E. coli BL21 cells and expressed at 10° C. (FIG. 22A). Active protein was obtained at this temperature only (FIG. 22B). The membrane fractions were used for this purpose in the further experiments. […] The high incorporation rate with regard to PUFA acyl-CoA residues is required for the use for the production of PUFA.
The assays were carried out with extracts (1 μg) from E. coli comprising the blank vector (pQE70) or a Shewanella construct without (pQE-Sh) or with His-Tag sequence at the 3′ end (pQE-ShHis) in the presence of 30 μM 1-oleoyl[U-14C]glycerol-3-phosphate and 30 μM of the detailed thioesters.

Thraustochytrium LPAAT = assay: Acyl-CoA specificity of Thraustochytrium LPAAT expressed as GST fusion protein in E. coli; format: biochemical; conditions: 0.4 μg soluble protein fraction, 30 μM 1-oleoyl[U-14C]glycerol-3-phosphate, increasing thioester concentrations
Excerpt: The PCR product was transferred into the vector pDONOR221 by Gateway reaction (BP reaction; Invitrogen) following the manufacturer's instructions, and the sequence was verified by sequencing. In a next step, the ThLPAAT sequence was then transferred into the vector pDES15 by the LR reaction and employed for expression in E. coli BL21 cells. The ThLPAAT sequence was attached to the open reading frame of the glutathione-S transferase (GST) encoded in the plasmid, in accordance with the manufacturer's instructions. This gave rise to a fusion protein of GST and ThLPAAT.
Expressed protein was detected after expression under standard conditions in E. coli (FIG. 21A) and purified via a glutathione column.
The enzyme assays were determined using 0.4 μg of soluble protein fraction in the presence of 100 mM Tricine-NaOH (pH 8.2), 30 μM 1-oleoyl[U-^14C]glycerol-3-phosphate and increasing concentrations of the thioesters detailed.

LPAAT [1] = assay: LPAAT acyl-CoA substrate specificity, Mortierella microsomal membranes; format: biochemical, Mortierella alpina; conditions: for Percentage incorporation in comparison with the incorporation of oleic acid: Mortierella LPAAT, 20 nmol acyl-CoA, sn-1-oleoyl-lysophosphatidic acid, DTNB assay
Procedure: (§1) Mortierella cultures were harvested after 5 days and placed on ice. All further procedures were carried out at 4° C. The mycelium was suspended in 0.1 M sodium phosphate buffer (pH 7.2), comprising 0.33 M sucrose, 0.1% BSA (free from fatty acids), 1000 units of catalase/ml and 1 mM Pefabloc. The following steps were carried out as described under “preparations of microsomal membranes from cotyledons of maturing seeds of sunflower and linseed”.
(§2) The specificity of the LPAAT was studied in order to verify whether the enzyme has a preference for certain acyl-CoAs, in particular to determine whether the LPAAT from oil seed plants converts LCPUFA-CoAs. […] The assay comprised sn-1-oleoyl-lysophosphatidic acid (30 nmol), DTNB (50 nmol) and 20 nmol of one of the following acyl-CoAs: palmitoyl-CoA (16:0-CoA), stearoyl-CoA (18:0-CoA), oleoyl-CoA (18:1-CoA), linoleoyl-CoA (18:2-CoA), dihomo-gamma-linolenyl-CoA (20:3-CoA) or arachidonyl-CoA (20:4-CoA) in 1 ml of 0.1 M phosphate buffer, pH 7.2. […] Microsomal membranes (equivalent to 10 μg of protein in the case of Mortierella and 40 μg of protein in the case of sunflower and linseed) were added to the reaction mixture in order to start the reaction.

GPAT [2] = assay: GPAT acyl-CoA substrate specificity, sunflower microsomal membranes; format: biochemical; conditions: for Percentage incorporation in comparison with the incorporation of oleic acid: 0.2 mM acyl-CoA, 5 mM [14C] G3P, 5 minutes
Procedure: (§3) All the procedures were carried out at 4° C. The cotyledons of maturing sunflower seeds and linseed were harvested approximately 10 days after anthesis and suspended in 0.1 M sodium phosphate buffer (pH 7.2), comprising 0.33 M sucrose and 0.1% BSA (free from fatty acids). After comminution in a glass homogenizer, the homogenate was centrifuged for 30 minutes at 20 000×g. The supernatant was filtered through one layer of Miracloth and centrifuged for 90 minutes in an ultracentrifuge at 100 000×g. The pelleted microsomal membranes were washed with 0.1 M sodium phosphate buffer (pH 7.2) and resuspended in a small volume of buffer, using a glass homogenizer. The microsomal membrane preparations were either immediately processed or stored at −80° C.
(§4) The specificity of the GPAT was studied to verify whether the enzyme has a preference for certain acyl-CoAs, in particular to determine whether the GPAT from oil seed plants converts LCPUFA-CoAs. Microsomal membranes were incubated with 0.5 mM (Mortierella) or 0.2 mM (sunflower and linseed) of one of the following acyl-CoAs: myristoyl-CoA (14:0-CoA), palmitoyl-CoA (16:0-CoA), palmitoleoyl-CoA (16:1-CoA), stearoyl-CoA (18:0-CoA), oleoyl-CoA (18:1-CoA), linoleoyl-CoA (18:2-CoA), dihomo-gamma-linolenoyl-CoA (20:3-CoA) or arachidonyl-CoA (20:4-CoA) and 5 mM [^14C] G3P. Microsomal membranes (equivalent to 50 μg of protein in the case of sunflower and Mortierella and 150 μg of protein in the case of linseed) were added to the reaction mixture in order to start the reaction. After incubation for 5 minutes, the lipids were extracted by the method of Bligh & Dyer, and the radioactivity incorporated in complex lipids was determined.

LPAAT [3] = assay: LPAAT acyl-CoA substrate specificity, sunflower microsomal membranes; format: biochemical; conditions: for Percentage incorporation in comparison with the incorporation of oleic acid: 20 nmol acyl-CoA, sn-1-oleoyl-lysophosphatidic acid, DTNB assay
Procedure: as §3, §2

LPCAT [4] = assay: LPCAT acyl-CoA substrate specificity, Mortierella microsomal membranes; format: biochemical, Mortierella alpina; conditions: for Percentage incorporation in comparison with the incorporation of oleic acid: Mortierella LPCAT, 20 nmol acyl-CoA, sn-1-palmitolysophosphatidylcholine, DTNB assay
Procedure: as §1
(§5) LPCAT activity was determined in a continuous spectraphotometric assay in which 5,5-dithiobis-2-nitrobenzoate (DTNB) was used, and the change in absorption at 409 nm and 25° C. was monitored. The assay comprised sn-1-palmitolysophosphatidylcholine (30 nmol) as acyl acceptor, DTNB (50 nmol) and 20 nmol of one of the following acyl-CoAs: myristoyl-CoA (14:0-CoA), palmitoyl-CoA (16:0-CoA), palmitoleoyl-CoA (16:1-CoA), stearoyl-CoA (18:0-CoA), oleoyl-CoA (18:1-CoA), linoleoyl-CoA (18:2-CoA), dihomo-gamma-linolenyl-CoA (20:3-CoA) or arachidonyl-CoA (20:4-CoA) in 1 ml of 0.1 M phosphate buffer, pH 7.2. The reaction was started by addition of microsomal membrane preparation. The amount of microsomal membrane preparation added was 5 μg (Mortierella and sunflower) or 30 μg (linseed).

LPCAT [5] = assay: LPCAT acyl-CoA substrate specificity, sunflower microsomal membranes; format: biochemical; conditions: for Percentage incorporation in comparison with the incorporation of oleic acid: 20 nmol acyl-CoA, sn-1-palmitolysophosphatidylcholine, DTNB assay
Procedure: as §3, §5

GPAT [6] = assay: GPAT acyl-CoA substrate specificity, linseed microsomal membranes; format: biochemical; conditions: for Percentage incorporation in comparison with the incorporation of oleic acid: 0.2 mM acyl-CoA, 5 mM [14C] G3P, 5 minutes
Procedure: as §3, §4

GPAT [7] = assay: GPAT acyl-CoA substrate specificity, Mortierella microsomal membranes; format: biochemical, Mortierella alpina; conditions: for Percentage incorporation in comparison with the incorporation of oleic acid: Mortierella GPAT, 0.5 mM acyl-CoA, 5 mM [14C] G3P, 5 minutes
Procedure: as §1, §4

LPCAT [8] = assay: LPCAT acyl-CoA substrate specificity, linseed microsomal membranes; format: biochemical; conditions: for Percentage incorporation in comparison with the incorporation of oleic acid: 20 nmol acyl-CoA, sn-1-palmitolysophosphatidylcholine, DTNB assay
Procedure: as §3, §5

LPAAT [9] = assay: LPAAT acyl-CoA substrate specificity, linseed microsomal membranes; format: biochemical; conditions: for Percentage incorporation in comparison with the incorporation of oleic acid: 20 nmol acyl-CoA, sn-1-oleoyl-lysophosphatidic acid, DTNB assay
Procedure: as §3, §2

Row | Compound | Percentage incorporation in comparison with the incorporation of oleic acid (LPAAT [1]) | Percentage incorporation in comparison with the incorporation of oleic acid (GPAT [2]) | Percentage incorporation in comparison with the incorporation of oleic acid (LPAAT [3]) | Percentage incorporation in comparison with the incorporation of oleic acid (LPCAT [4]) | Percentage incorporation in comparison with the incorporation of oleic acid (LPCAT [5]) | Percentage incorporation in comparison with the incorporation of oleic acid (GPAT [6]) | Percentage incorporation in comparison with the incorporation of oleic acid (GPAT [7]) | Percentage incorporation in comparison with the incorporation of oleic acid (LPCAT [8]) | Percentage incorporation in comparison with the incorporation of oleic acid (LPAAT [9]) | also measured
1 | CC/C=C\C/C=C\C/C=C\C/C=C\C/C=C\C/C=C\CCC(=O)SCCNC(=O)CCNC(=O)[C@H](O)C(C)(C)COP(=O)(O)OP(=O)(O)OC[C@H]1O[C@@H](n2cnc3c(N)ncnc32)[C@H](O)[C@@H]1OP(=O)(O)O [DHA-CoA] | – | – | – | – | – | – | – | – | – | Incorporation activity of the membrane fraction (Shewanella LPAAT): high level of activity; LPAAT activity of the purified GST fusion protein by acyl-CoA (Thraustochytrium LPAAT): highest activity
2 | CCCCCCCC/C=C\CCCCCCCC(=O)SCCNC(=O)CCNC(=O)[C@H](O)C(C)(C)COP(=O)(O)OP(=O)(O)OC[C@H]1O[C@@H](n2cnc3c(N)ncnc32)[C@H](O)[C@@H]1OP(=O)(O)O [Oleoyl-CoA, oleoyl-CoA] | 100% | 100% | 100% | 100% | 100% | 100% | 100% | 100% | 100% | Rate of the incorporation of oleic acid (LPAAT [1]; Mortierella alpina LPAAT): 51 nmol/min/mg protein; Rate of the incorporation of oleic acid (GPAT [2]): 13 nmol/min/mg protein; Rate of the incorporation of oleic acid (LPAAT [3]): 28 nmol/min/mg protein; Rate of the incorporation of oleic acid (LPCAT [4]; Mortierella alpina LPCAT): 350 nmol/min/mg protein; Rate of the incorporation of oleic acid (LPCAT [5]): 360 nmol/min/mg protein; Rate of the incorporation of oleic acid (GPAT [6]): 6 nmol/min/mg protein; Rate of the incorporation of oleic acid (GPAT [7]; Mortierella alpina GPAT): 30 nmol/min/mg protein; LPCAT activity (in words) (LPCAT [8]): converted equally efficiently; Rate of the incorporation of oleic acid (LPCAT [8]): 9 nmol/min/mg protein; Rate of the incorporation of oleic acid (LPAAT [9]): 25 nmol/min/mg protein
3 | CCCCCCCCCCCCCCCC(=O)SCCNC(=O)CCNC(=O)[C@H](O)C(C)(C)COP(=O)(O)OP(=O)(O)OC[C@H]1O[C@@H](n2cnc3c(N)ncnc32)[C@H](O)[C@@H]1OP(=O)(O)O [Palmitoyl-CoA, palmitoyl-CoA] | 40% | 64% | 15% | 25% | – | 90% | 66% | 5% | 25% | Percentage incorporation in comparison with the incorporation of oleic acid (LPCAT [5]; listed as SSA Palmitoyl-CoA): 13%
4 | CCCCCCCCCCCCCCCCCC(=O)SCCNC(=O)CCNC(=O)[C@H](O)C(C)(C)COP(=O)(O)OP(=O)(O)OC[C@H]1O[C@@H](n2cnc3c(N)ncnc32)[C@H](O)[C@@H]1OP(=O)(O)O [Stearoyl-CoA, stearoyl-CoA] | 36% | 40% | 14% | 10% | 18% | 65% | 50% | 15% | 30% | –

Source: patent US8354569B2, “Plant acyltransferases specific for long-chained, multiply unsaturated fatty acids” (University of Bristol, priority 2003, dated 2013)
